Among the data in PubChem BioAssay AID463074 (Broad Institute, 2010) are AC50 values, retold here.

The structures appear in SMILES notation. Active and inactive are the calls of the source.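 How the source made its calls: active means AC50 no more than tenfold above the top dose tested, or full inhibition at every dose with a flat fit (cut at about 19 µM in these data); inconclusive means flat curve fit with inhibition between 30% and 70%, or poor fit; inactive means AC50 more than tenfold above the top dose tested.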

In this test the test system is HMLE_sh_eGFP viability, CellTiter-Glo luminescence, 72 h. In words: viability loss of HMLE_sh_eGFP cells – cell-based, luminescence, counter-screen for HMLE_sh_ECad selective toxicity project, dose response (AID 463074;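 further: counterscreen control line to flag general toxicity for the HMLE_sh_ECad screen; potency for loss of viability as luminescence drops below DMSO wells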). (Counterscreens check selectivity or assay interference.)
`Clc1ccc2c(N/N=C/c3ccc(Br)cc3)ccnc2c1`: the AC50 was 7.56 µM.

In the case of `O=C(Nc1ccc(Nc2ccccc2)cc1)c1ccccc1`, the AC50 was 13.5 µM. As for `Oc1ccc(CCNc2ncnc3ccc(Cl)cc23)cc1`, the AC50 is 7.91 µM. On to `O=C(NCc1ccc(Cl)cc1)c1cccc(NC(=O)c2ccccc2)c1`, for which the AC50 was 6.79 µM. Under `Cc1ccc(NC(=S)NC(NC(=O)Cc2cccc3ccccc23)C(Cl)(Cl)Cl)cc1` (stereo not given) stands 3.41 µM. Under `O=C(CC1NCCc2ccccc21)Nc1ccc(Oc2ccccc2)cc1` (stereo not given) stands 7.46 µM; under `O=C(N/N=C(\Cc1ncc[nH]1)c1ccccc1)c1ccncc1`, 3.85 µM; under `COc1cc(OC)cc(-c2sc3ccc(OC)cc3c2-c2ccc(O)cc2)c1`, 3.41 µM. Turning to `C1=C(c2sc3ccccc3c2-c2ccc(OCCN3CCOCC3)cc2)CCCC1`, the AC50 was 1.94 µM. Under `O=C(NCCN1CCCC1)c1ccc2c(c1)N(Cc1cccc(Cl)c1)C(=O)c1ccccc1S2(=O)=O` stands > 19.5 µM (inactive); under `CCC(CO)Oc1cc(NCc2ccc(Cl)cc2Cl)c2ncn(C(C)C)c2c1` (stereo not given), 7.64 µM. For `OCCCNc1cc(-c2ccccc2)nc2cc(-c3ccc(F)cc3)nn12` the value was 9.12 µM; for `CC(O)CC(C(=O)NNc1ccccc1)C(=O)NNc1ccccc1` (stereo not given), 1.87 µM; for `CC1(C)C(=O)N(c2ccccc2)C1c1ccccc1O` (stereo not given), 3.25 µM.

Consider `COc1cccc(O)c1CN1CCC(C(=O)Nc2ccc(-c3cccc(C)c3)cc2)CC1`, for which the concentration at half-maximal activity (AC50) is 4.06 µM. With `COc1cc2sc(-c3ccccc3OC)c(-c3ccc(OCCN4CCCCC4)cc3)c2cc1OC`, the AC50 was 4.24 µM. Under `O/N=C/c1ccnc(SCc2ccc(Cl)cc2)n1` stands 10.9 µM; under `CC(C)(C)C1CCC2(CC1)C(C#N)=C(SCC(=O)NC1CCCCC1)NC(=O)C2C#N` (stereo not given), 9.88 µM. For `CCN(CC)CCCNC(=S)N1CCN(c2nc(-c3ccccc3)cs2)CC1` the value was 5.65 µM; for `O=C(Nc1ccc(NC(=S)NC(=O)c2ccccc2Cl)cc1)c1cccc(Cl)c1`, 17.8 µM; for `C=CCC[C@@H](Cc1ccc(F)cc1)C(=O)OC[C@@H](Cc1c[nH]c2ccccc12)NC(=O)[C@@H](CC=C)CC(=O)N(CCO)Cc1ccccc1`, 7.13 µM. Under `C=CCSC(=C(C#N)C#N)c1cc2c([nH]1)CCCC2` stands 13.5 µM; under `CCOC(=O)c1c(C)oc2c(F)c(F)c(F)c(F)c2c1=O`, 2.02 µM. Regarding `CSc1nc2ccccc2cc1/C=C(\C#N)c1cccc(Cl)c1`, the AC50 is 2.73 µM. Regarding `CNc1nc(SCc2ccccc2Cl)nc2c1CCCC2`, the AC50 is 8.77 µM. For `CC(C)C1C(c2ccccc2)N(C)C(c2ccccc2)CC1(O)c1ccccc1` (stereo not given) the value was 3.35 µM; for `C/C(=N\Nc1ccccc1)c1c(O)[nH]c(=O)[nH]c1=O`, 2.25 µM. On to `CC(C)(C)C1CCC(CN2C(Nc3ccccc3)=NC[C@@H]2Cc2ccccc2)CC1` (stereo not given in full), for which the AC50 is 6.54 µM. Under `COc1cccc(S(=O)(=O)NCc2ccc(C(=O)Nc3cccc(Cl)c3)cc2)c1` stands 4.74 µM; under `Cc1ccc(OC/C(O)=C(\C#N)c2nc3ccccc3s2)cc1`, 6.81 µM. Under `O=C(O)c1cc(O)ccc1NC(=O)C(c1ccccc1)c1ccccc1` stands > 19.5 µM (inactive); under `CCCSc1nnc(CSc2nc3ccccc3s2)n1-c1ccccc1`, 3.01 µM. For `CCN(CC)c1nc(SCCOC(=O)Nc2ccccc2)nc(N(CC)CC)n1` the value was 4.58 µM. Turning to `CC1(C)Cc2c(C#N)c(NC3CCCCC3)nc(-c3ccco3)c2CO1`, the AC50 is 7.19 µM. Take `CCC(c1nnnn1Cc1ccco1)N1CCN(c2cc(Cl)ccc2C)CC1` (stereo not given): the AC50 was 4.04 µM. Under `COc1ccc2sc(-c3ccc(SC)cc3)c(C#CC(C)(C)O)c2c1` stands 6.66 µM. For `CC1CCN(c2nc(-c3cccnc3)nc3scc(-c4ccccc4)c23)CC1` the value was 1.48 µM; for `Cc1ccc(C)c(N2CCN(C(=S)Nc3ccc4nc(N5CCN(C)CC5)cc(C)c4c3)CC2)c1`, 7.7 µM; for `Cc1cc(OCc2cc(C(=O)N3CCC(Oc4cccnc4)CC3)no2)cc(C)c1Cl`, 8.31 µM.

For the compound `CCCc1nc2ccccc2c(C(=O)OCC(=O)N2CCc3ccccc32)c1CC`, the AC50 is 3.97 µM. In the case of `COc1cc(NC(=O)c2cc3ccccc3cc2O)c(OC)cc1Cl`, the AC50 is 1.17 µM. Under `Clc1cc2cccnc2c2ncccc12` stands 3.56 µM; under `S=C(Nc1ccccc1Cl)N1CCCC(c2ccccc2)=N1`, 8.88 µM. For `COc1ccc(NC(=O)c2ccc(COc3ccccc3Br)o2)cc1OC` the value was 0.756 µM. As for `O=C(Nc1ccc2c(c1)OCCO2)c1cccc2nc3ccccc3nc12`, the AC50 is 3.18 µM.

`CCN(CC)CCCNC(=O)c1cc(-c2ccccc2)c(N2CCCCC2)s1`: the AC50 was 3.29 µM.

Regarding `CCc1c(C2(O)CCCCC2)[nH]c2c(C(=O)OC)cc(Cl)cc12`, the AC50 is 2.69 µM. Under `CC(C)(Oc1ccc(Cl)cc1)C(=O)NC1=NN(c2ccccc2)C(=O)C1` stands 6.11 µM; under `Cc1ccc(S(=O)(=O)Nc2ccccc2-c2ccccc2NS(=O)(=O)c2ccc(C)cc2)cc1`, 6.98 µM. In the case of `CN[C@H]1CCc2cc(OC)c(OC)c(OC)c2-c2ccc(N(C)CC(OC)OC)c(=O)cc21`, the AC50 was 2.15 µM. For the compound `COc1ccc(NC(=O)c2cccc(-c3ccc(O)cc3)c2)cn1`, the AC50 is 7 µM. For `CC1=CC(C)(C)N(S(=O)(=O)c2ccc(F)cc2)c2ccc(C)cc21` the value was 2.61 µM; for `Cc1cc(-c2csc3nc[nH]c(=S)c23)cc(C)c1C`, 18.8 µM.

In the case of `CCCNCC1C(Oc2ccc(Cl)cc2Cl)C(=O)N1c1cccc(C)c1C` (stereo not given), the AC50 is 7.2 µM. As for `COc1ccc(-c2cc(-c3nc4ccccn4c3NCc3ccccc3)ccc2OC)cc1`, the AC50 is 1.96 µM.

As for `CN(C)C(=O)/C(C#N)=C\c1cc(Br)c(Sc2ccc(Cl)cc2)o1`, the AC50 was 4.46 µM.

Consider `Cc1nc2c3cc(F)ccc3n(Cc3ccccc3)c2s1`, for which the AC50 is 0.825 µM.

As to `COc1ccc(-c2oc3c4c(cc(OC)c3c(=O)c2CC=C(C)C)OC(C)(C)C=C4)c(OC)c1`, the AC50 is 7.18 µM. Under `COc1ccc(N=C2NN=C(c3c(C)[nH]c4ccccc34)CS2)cc1` stands 7.77 µM; under `O=C1C2C3C=CC(C4CC34)C2C(=O)N1/N=C/c1ccc(-c2ccc(F)cc2[N+](=O)[O-])o1` (stereo not given), 1.21 µM. For `Cc1cc(C)cc(NC(=O)Nc2ccc(NC(=O)c3ccccc3O)cc2)c1` the value was > 19.5 µM (inactive); for `O=C(CCSc1nc2ccccc2s1)N/N=C/c1c(O)ccc2ccccc12`, 16.2 µM; for `COC(=O)c1cc(=O)n(Cc2cccs2)c(=Nc2ccc(F)cc2)s1`, 3.58 µM. For `Cc1cc(C)cc(NC(=O)CSc2ccc(-c3ccccn3)nn2)c1` the value was 3.61 µM; for `O=C1NC(=O)N(CCc2ccc(F)cc2)C(=O)/C1=C/C=C/c1ccccc1`, 3.91 µM. In the case of `O=C(NCC(c1cccs1)N1CCOCC1)c1ccc(Cl)s1` (stereo not given), the AC50 is 1.76 µM. For the compound `O=C(NC1CCCCC1)C(c1cccnc1)N(C(=O)CCl)c1ccc(F)cc1` (stereo not given), the AC50 was 3.47 µM.

On to `COc1ccc(-c2cc(C(=O)N3CC4(C)CC3CC(C)(C)C4)no2)cc1` (stereo not given), for which the AC50 was 1.43 µM. Under `O=C(Nc1nc(-c2cccs2)cs1)c1ccc([N+](=O)[O-])o1` stands 3.18 µM; under `Cc1ccc(NC2=C(Cl)C(=O)c3ccccc3C2=O)cc1`, 1.95 µM.

Consider `C[C@@H]1CCC(=O)N(CC[C@H](Sc2ccc(Br)cc2)c2ccccc2)CC1`, for which the AC50 is 5.66 µM.

On to `N#Cc1c(-c2ccccc2)c(-c2ccccc2)nn(CC(=O)NNC(=O)Nc2ccc(Cl)c(Cl)c2)c1=O`, for which the AC50 was 3.28 µM. Regarding `Cc1cc(C)nc(NC(=O)/C=C/c2cccs2)c1`, the AC50 is > 19.5 µM (inactive). For `O=C(CSC1=NNC(c2ccccn2)S1)Nc1ccc(C(F)(F)F)cc1` (stereo not given) the value was 4.27 µM; for `CCOC(=O)c1ccc(NC(=O)c2nc[nH]c2C(=O)NCCCCNC(=O)c2[nH]cnc2C(=O)Nc2ccc(C(=O)OCC)cc2)cc1`, 3.99 µM.

For `S=c1nc[nH]c2nc[nH]c12`, the concentration at half-maximal activity (AC50) was 1.52 µM. In the case of `CCN(Cc1ccccc1)S(=O)(=O)c1ccc(C(=O)N(CCCN(C)C)c2nc3cc(C)cc(C)c3s2)cc1`, the half-maximal activity concentration (AC50) was 3.75 µM.

For `Cc1ccnc(NC(=O)CSc2cc(=O)n(C)c3ccccc23)c1`, the AC50 is 8.16 µM. For `COc1cccc(Nc2nc(-c3ccccc3)nc3ccccc23)c1` the value was 7.67 µM; for `CN1CCN(CCCN2c3ccccc3Sc3ccc(Cl)cc32)CC1`, 5.25 µM.

For the compound `CC(C)N1CCN(Cc2ccc(OC3CCCC3)cc2)CC1CCO` (stereo not given), the half-maximal activity concentration (AC50) is 16.7 µM.

Turning to `COc1cc([C@@H]2c3cc4c(cc3[C@@H](O)[C@H]3COC(=O)[C@H]23)OCO4)cc(OC)c1O[Si](C)(C)C(C)(C)C`, the AC50 was 6.76 µM. Take `CC(NCc1ccc(OCc2ccc(Cl)cc2)cc1)C(O)c1ccccc1` (stereo not given): the AC50 was 3.57 µM. For `CCCCCCC[C@@H](C/C=C/CCC(=O)N(C)C/C(=C/Cl)C/C(=C\C(=O)N1CC(OC)=CC1=O)OC)OC` the value was 5.38 µM; for `COc1ccc(NC(=O)c2cc3ccc(O)cc3o/c2=N\O)cc1`, 9.36 µM. Consider `CCCc1cc(=O)[nH]c(SCC(=O)Nc2sc(C(N)=O)c(C)c2C(=O)OCCOC)n1`, for which the AC50 is 4.25 µM. Under `O=C(COC(=O)c1c2c(nc3ccccc13)/C(=C\c1cccs1)CCC2)Nc1ccccc1` stands 2.77 µM; under `CC(C)n1cnc2c(NCc3ccccc3)cc(N[C@H](C)CO)cc21`, 7.36 µM. Consider `O=C(Nc1cccc(Cl)c1)Nc1csc([N+](=O)[O-])c1`, for which the half-maximal activity concentration (AC50) is 5.64 µM. For the compound `CCCCOC(=O)c1c(C)oc2ccc(NS(=O)(=O)c3ccc4c5c(cccc35)C(=O)N4)cc12`, the AC50 was 9.12 µM. For `CC(C)(C)c1cc(C(=O)NNc2cc(C(F)(F)F)ccc2Cl)n(Cc2ccccc2)n1`, the AC50 was 4.18 µM. `C[C@]12CC[C@H]3C(CCC4(O)CC(O)CC[C@]34C=O)C1=CC[C@H]2c1ccc(=O)oc1` (stereo not given in full): the concentration at half-maximal activity (AC50) was 3.6 µM. `CCC/C(=C1/c2ccccc2C(=O)N1c1ccccc1)c1ccc2[nH]ccc2c1`: the AC50 was 1.67 µM. Regarding `CCOC(=O)c1nn(-c2ccc(F)cc2)c(-c2ccccc2)c1C(=O)c1ccccc1`, the AC50 was 11.8 µM. For `Cc1cc(Nc2cccc([N+](=O)[O-])c2)n2c(nc3ccccc32)c1C#N` the value was 9.61 µM.

Usually AC50 stands for the concentration at which the activity in the assay is half-maximal.
